Results on 32 compounds are retold here after ChEMBL document CHEMBL3301361, “Experimental in vitro DMPK and physicochemical data on a set of publicly disclosed compounds”.

≈ marks a conversion by molar mass, not a printed value.

For orientation: logD means lipophilicity at a set pH, counting ionised and neutral species. Higher therefore signals a more lipophilic compound. Usually solubility (thermodynamic) stands for the concentration in solution at equilibrium with solid.

A short description of data set [1]: physchem. Particulars: octan-1-ol/water.
Data set [2] can be described thus: physchem. Particulars: pH 7.4 buffer.

In turn, `CCOC(=O)c1ccccc1-c1csc(NS(=O)(=O)c2ccc(Cl)cc2)n1` yielded a logD in data set [1] (pH 7.4, LogD7.4) of 2.43. In addition, the thermodynamic solubility in data set [2] came to 1.4 µM (≈ 0.592 µg/mL).

For `Cc1nc(CS(=O)(=O)c2ccc(Cl)cc2)cc(N2CCOCC2)n1`, in data set [1] (pH 7.4, LogD7.4), the logD was found to be 1.8. This compound yielded a solubility (thermodynamic) in data set [2] of 224 µM (≈ 82.4 µg/mL).

Consider `Cc1cc(C)cc(-c2[nH]c3sc(C(C)(C)C(=O)N4C5CCC4CC5)cc3c2CCN2CCN(CC(=O)N(C)C)CC2)c1`, for which the logD in data set [1] (pH 7.4, LogD7.4) was determined as 4.13. Besides, the thermodynamic solubility in data set [2] turned out to be 100 µM (≈ 59 µg/mL).

Compound `COc1ccc(C(=O)N2CCC(C(=O)c3ccc(F)cc3)CC2)cc1` returned a logD in data set [1] (pH 7.4, LogD7.4) of 2.92. The thermodynamic solubility in data set [2] was 21.4 µM (≈ 7.31 µg/mL).

Compound `O=c1cc(N2CCOCC2)oc2c(-c3ccccc3)cccc12` [LY-294002] registered a logD in data set [1] (pH 7.4, LogD7.4) of 2.9. For the same compound, the thermodynamic solubility in data set [2] amounted to 302 µM (≈ 92.8 µg/mL).

Regarding `CCN(CCO)CCCOc1cc2ncnc(Nc3cc(CC(=O)Nc4cccc(F)c4F)[nH]n3)c2cc1OC`, the logD in data set [1] (pH 7.4, LogD7.4) turned out to be 1.94. Besides, the thermodynamic solubility in data set [2] amounted to 3 µM (≈ 1.67 µg/mL).

In data set [1] (pH 7.4, LogD7.4), `NC1(c2ccc(-c3nc4ccn5c(=O)[nH]nc5c4cc3-c3ccccc3)cc2)CCC1` [MK-2206] returned a logD of 2.5. In addition, the thermodynamic solubility in data set [2] was determined as 4.7 µM (≈ 1.92 µg/mL).

The compound `NC1=NN(c2cccc(C(F)(F)F)c2)CC1` [BW-755C] had a logD in data set [1] (pH 7.4, LogD7.4) of 2.55. In data set [2], this compound yielded a solubility (thermodynamic) of 1450 µM (≈ 331 µg/mL).

For the compound `CN(C)CC(O)COc1ccc(Nc2nccc(Nc3ccccc3C#N)n2)cc1` (centres undefined), in data set [1] (pH 7.4, LogD7.4), the logD was found to be 1.2. Further, the thermodynamic solubility in data set [2] came to 1100 µM (≈ 444 µg/mL).

As to `O=C1COC2(CCN(S(=O)(=O)c3ccc(-c4ccc5cccnc5c4)cc3)CC2)CN1C1CC1`, the logD in data set [1] (pH 7.4, LogD7.4) is 3.24. The thermodynamic solubility in data set [2] was 1.9 µM (≈ 0.907 µg/mL).

`O=c1cc(-c2ccc(O)cc2)oc2cc(O)ccc12` came in with a logD in data set [1] (pH 7.4, LogD7.4) of 3.2. Also, the solubility (thermodynamic) in data set [2] was determined as 2.3 µM (≈ 0.585 µg/mL).

Turning to `CCn1c2ccccc2c2cc(NC(=O)CN(C)C)ccc21`, in data set [1] (pH 7.4, LogD7.4), the logD was determined as 3.2. Also, the thermodynamic solubility in data set [2] was 219 µM (≈ 64.6 µg/mL).

`COc1ccccc1Nc1cc(Oc2cc(C)c(C)nc2-c2ccccn2)ccn1` showed a logD in data set [1] (pH 7.4, LogD7.4) of 3.37. This compound also gave a thermodynamic solubility in data set [2] of 22.9 µM (≈ 9.12 µg/mL).

With `Clc1cc(Nc2ncnc3[nH]nc(OCCN4CCCC4)c23)ccc1OCc1ccccn1`, the logD in data set [1] (pH 7.4, LogD7.4) amounted to 2.87. In data set [2], this compound registered a thermodynamic solubility of 12 µM (≈ 5.59 µg/mL).

As to `CC(C)N1CCO[C@@H](CN2CCN(C(=O)Nc3ccc(Cl)c(Cl)c3)CC2)C1`, the logD in data set [1] (pH 7.4, LogD7.4) stood at 2.77. This compound also registered a thermodynamic solubility in data set [2] of 1120 µM (≈ 466 µg/mL).

As for `Oc1cc(-c2ccccc2)nc2ccnn12`, in data set [1] (pH 7.4), the logD was found to be 1.3. The compound also displayed a thermodynamic solubility in data set [2] of 813 µM (≈ 172 µg/mL).

Consider `C=CCN(C(=O)NCc1ccc(OC)cc1)C1CCN(CCC(c2ccccc2)c2ccccc2)CC1`, for which the logD in data set [1] (pH 7.4, LogD7.4) was determined as 3.6. This compound also had a thermodynamic solubility in data set [2] of 53.7 µM (≈ 26.7 µg/mL).

For `Oc1ccc(-c2ccc(C3(O)CN4CCC3CC4)cc2)cc1` (centres undefined), the logD in data set [1] (pH 7.4) is 0.95. In data set [2], this compound showed a solubility (thermodynamic) of 436 µM (≈ 129 µg/mL).

The compound `COc1cc2ncnc(Nc3cc(NC(=O)c4ccnc(N5CCOCC5)c4)ccc3C)c2cc1OCCN1CCCCC1` gave a logD in data set [1] (pH 7.4, LogD7.4) of 3.35. In data set [2], this compound registered a solubility (thermodynamic) of 813 µM (≈ 486 µg/mL).

In data set [1] (pH 7.4, LogD7.4), `CC(=O)N1CCN(c2ccc(Nc3nccc(-c4cnc5ccccn45)n3)cc2)CC1` registered a logD of 2.82. In data set [2], this compound returned a thermodynamic solubility of 8.5 µM (≈ 3.51 µg/mL).

As to `COc1cc2ncnc(Nc3cc(NC(=O)c4cccc(N5CCOCC5)c4)ccc3C)c2cc1OC`, the logD in data set [1] (pH 7.4, LogD7.4) came to 3.6. Besides, in data set [2], the thermodynamic solubility came out at 14.5 µM (≈ 7.24 µg/mL).

With `Cc1cc(Nc2ccnc(NCc3cc(C4CC4)no3)n2)n[nH]1`, in data set [1] (pH 7.4, LogD7.4), the logD was found to be 2.5. In data set [2], this compound showed a solubility (thermodynamic) of 63.1 µM (≈ 19.6 µg/mL).

As to `Cc1c(Oc2ccc(S(C)(=O)=O)cc2F)ncnc1OC1CCN(C(=O)OC(C)C)CC1`, the logD in data set [1] (pH 7.4, LogD7.4) was 3.7. The compound also registered a solubility (thermodynamic) in data set [2] of 3 µM (≈ 1.4 µg/mL).

In turn, `CC(C)(C(=O)Nc1nnc(C(=O)Nc2ccc(N3CCOCC3)cc2)o1)c1ccc(Cl)cc1` yielded a logD in data set [1] (pH 7.4, LogD7.4) of 2.96. Also, the thermodynamic solubility in data set [2] stood at 200 µM (≈ 93.8 µg/mL).

Compound `CCOC(=O)N1CCN(C(=O)[C@H](Cc2cccc(C(=N)N)c2)NS(=O)(=O)c2c(C(C)C)cc(C(C)C)cc2C(C)C)CC1` returned a logD in data set [1] (pH 7.4, LogD7.4) of 1.67. In data set [2], this compound displayed a thermodynamic solubility of 692 µM (≈ 425 µg/mL).

`Oc1ncnc2scc(-c3ccsc3)c12` came in with a logD in data set [1] (pH 7.4, LogD7.4) of 2.25. In addition, in data set [2], the thermodynamic solubility worked out at 178 µM (≈ 41.7 µg/mL).

With `Nc1cccc(NC(=O)c2ccc(CNC(=O)OCc3cccnc3)cc2)c1`, in data set [1] (pH 7.4, LogD7.4), the logD turned out to be 1.6. Besides, the thermodynamic solubility in data set [2] stood at 21.9 µM (≈ 8.24 µg/mL).

In data set [1] (pH 7.4, LogD7.4), `Cc1ccc(-c2nn(C(C)(C)C)c3ncnc(N)c23)cc1` had a pH-dependent lipophilicity (logD) of 4.1. The compound also had a thermodynamic solubility in data set [2] of 9.8 µM (≈ 2.76 µg/mL).

In turn, `O=C(CO)N1CCC[C@@H]1COc1cccc2ncnc(Nc3ccc(OCc4ccccn4)c(Cl)c3)c12` showed a logD in data set [1] (pH 7.4, LogD7.4) of 3.71. Moreover, in data set [2], the solubility (thermodynamic) was 2.2 µM (≈ 1.14 µg/mL).

Turning to `Nc1ncnc(Nc2ccccc2)n1` [AMANOZINE], the logD in data set [1] (pH 7.4, LogD7.4) was determined as 1.4. The same compound displayed a solubility (thermodynamic) in data set [2] of 246 µM (≈ 46 µg/mL).

As for `CN1CCC(COc2cc(OC3CCOCC3)c3c(Nc4c(Cl)ccc5c4OCO5)ncnc3c2)CC1`, the logD in data set [1] (pH 7.4, LogD7.4) amounted to 2.59. The compound also yielded a solubility (thermodynamic) in data set [2] of 1380 µM (≈ 727 µg/mL).

With `COc1cc2ncnc(Nc3cccc(Cl)c3F)c2cc1CN1CCC[C@H]1C(N)=O`, in data set [1] (pH 7.4, LogD7.4), the logD turned out to be 3.58. Besides, the thermodynamic solubility in data set [2] came to 257 µM (≈ 110 µg/mL).
